Molecular target: Casein kinase 2 (Homo sapiens, UniProt P67870+P68400+P19784+Q8NEV1)
Test: Inhibition of CK2 (unknown origin)
Format: protein assay

`COc1cc2c(cc1O)C[C@H]1c3c(cc(O)c(OC)c3-2)CCN1C` [BOLDINE] gave an IC50 of 700 nM.

Reference: ChEMBL document CHEMBL4480438, “Inhibitory Properties of ATP-Competitive Coumestrol and Boldine Are Correlated to Different Modulations of CK2 Flexibility” (J Nat Prod, 2019)
